We go through five molecules from US12721833B2, “Small molecule anticancer agents, combinations and uses thereof” (University of Florida Research Foundation, Incorporated, priority 2020, dated 2026).

In data set [1] the test system is DR4, DR5, EGFR, GRP78, AGR2, XBP1s in MDA-MB-468 cells. Kind of data set: Immunoblots in MDA-MB-468 cells (FIG. 9, FIG. 10). The class given is cell-based. The note with it: for DR5 expression / ER-stress induced proteins GRP78 and AGR2: MDA-MB-468 cells (FIG. 9); for potency vs tcyDTDO in upregulating and oligomerizing DR4 and DR5 and increasing XBP1s, GRP78, and AGR2 / disulfide bond-dependent oligomerization of DR4, DR5, and EGFR: MDA-MB-468 cells; for potency vs tcyDTDO in upregulating and oligomerizing DR4 and DR5 and increasing XBP1s, GRP78, and AGR2: 2.5 mM (FIG. 10); for disulfide bond-dependent oligomerization of DR4, DR5, and EGFR: at the concentrations that induce cancer cell death (FIG. 9).

The next data set concerns MDA-MB-468 cells. Kind of data set: MTT cell viability assay. The format is cell-based. The conditions noted are these: for potency of cytotoxicity relative to tcyDTDO: MDA-MB-468 breast cancer cells, compared with tcyDTDO; for effect on cell viability: MDA-MB-468 cells, increasing concentrations (FIG. 7). The protocol:
(§1) MTT cell viability is evaluated using MTT (3-(4,5-dimethylthiazol-2-yl)-2,5-diphenyltetrazolium bromide) assays carried out based on the manufacturer's instructions (kit CGD1, Sigma-Aldrich, St. Louis, MO).
Background: Tetrazolium dyes change colour on reduction, which living cells bring about.

Data set [2] deals with human breast tumors growing in rodent models. The note with it: cited from earlier work.
The next data set concerns pancreatic PDX tumors. Kind of data set: Treatment of mice bearing pancreatic PDX tumors (FIG. 4B). The class given is in vivo. The conditions noted are these: separation of cancer cells from stroma and pancreatic cancer cell death.
A further data set has as its system EGFR and HER2. Kind of data set: EGFR and HER2 levels in patient-derived breast cancer cells (FIG. 4A). The note with it: patient-derived cells from a TNBC (HCI-001) and a drug resistant, metastatic, HER2+ breast cancer (HCI-012/MLR). The class given is cell-based.
The test system of data set [3] is DR4, DR5, HER3 oligomerization and Akt phosphorylation. Kind of data set: Immunoblot analysis in MDA-MB-468 TNBC and BT474 HER2+ lines (FIG. 2B). The class given is cell-based. The note with it: the two compounds similar. For orientation: In western blotting, separated proteins are transferred to a membrane and probed.
The subject of a further data set is breast cancer cell lines. Kind of data set: Cell viability assays in breast cancer cell lines (FIG. 2C, FIG. 3B). The format is cell-based. The conditions noted are these: increasing concentrations. The protocol: as §1
For a further data set, the target named is T1, AGR2 (Homo sapiens, UniProt O95994).
T1 sequence (O95994 21-175): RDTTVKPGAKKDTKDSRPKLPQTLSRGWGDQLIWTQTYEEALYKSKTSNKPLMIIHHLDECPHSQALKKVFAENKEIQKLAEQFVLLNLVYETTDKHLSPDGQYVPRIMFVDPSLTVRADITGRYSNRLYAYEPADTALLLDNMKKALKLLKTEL
Kind of data set: Protein thiolate reactivity assay: biotin-tagged DDA binding to AGR2, with competitors. The note with it: competition with DDAs. The protocol: To measure DDA and NSC322072 covalent binding to AGR2, purified, recombinant AGR2 is incubated with a biotin-tagged DDA compound for 1 h at 37° C. in the presence or absence of non-biotinylated competitor DDAs or NSC322072. Reaction mixtures are boiled with SDS-PAGE sample buffer supplemented with 100 mM N-ethylmaleimide for ca. 10 minutes to block free thiolate groups remaining after the reaction. Conjugation of AGR2 by DDAs is measured by evaluating AGR2 modification in the modified immunoblot assay in Example 16.
Samples from the biotin-DDA/AGR2 reactions (Example 14) are resolved by non-reducing SDS-PAGE and transferred to nitrocellulose membranes. The membranes are blocked and analyzed by immunoblot with antibodies to AGR2 to verify addition of AGR2 protein to the assays. Anti-AGR2 primary antibody is detected with an Alkaline Phosphatase-conjugated secondary antibody. Separate, replicate membranes are probed with Streptavidin-Alkaline phosphatase. […] Both the AGR2 immunoblots and the Streptavidin-Alkaline phosphatase blots are detected using the standard Alkaline Phosphatase detection compounds, Bromo-chloro-indoyl Phosphate (BCIP)/Nitroblue Tetrazolium (NBT).

The subject of data set [4] is DR4, DR5, and EGFR oligomerization. Kind of data set: Immunoblot with inhibitors of ER acetyltransferases (FIG. 3C). The class given is cell-based.

On to `O=S1(=O)CC2CC(F)C(F)CC2CS1` (racemic) [dFtcyDTDO, (4aS,6S,7S,8aS)- and (4aR,6R,7R,8aR)-6,7-Difluorooctahydrobenzo[d][1,2]dithiine 2,2-dioxide], for which, in [1], the DR5 expression result is given as “upregulate DR5”; the “ER-stress induced proteins GRP78 and AGR2” value is “increase the ER-stress induced proteins GRP78 and AGR2”; the “potency vs tcyDTDO in upregulating and oligomerizing DR4 and DR5 and increasing XBP1s, GRP78, and AGR2” value is on record as “more potent than tcyDTDO”; the “disulfide bond-dependent oligomerization of DR4, DR5, and EGFR” value was “induce disulfide bond-dependent oligomerization of DR4, DR5, and EGFR”. Also, in the data set on MDA-MB-468 cells, the “potency of cytotoxicity relative to tcyDTDO” value is given as 2 fold and the “effect on cell viability” value is listed as “decrease the viability of the cancer cell lines in a concentration-dependent manner”.

On to `O=S1(=O)CC2CCCCC2CS1` (stereo not drawn) [TcyDTDO], for which the “in vivo anticancer activity” value in data set [2] is recorded as “established in vivo anticancer activity”. Further, the “effect on pancreatic PDX tumors (H&E)” value in the data set on pancreatic PDX tumors is “causes disintegration of the tumors”.

With `CCCCCC(C[N+]1(C)CCOCC1)C(=O)/C=C/c1ccccc1.[Br-]` (stereo not drawn) [NSC322072], the “EGFR and HER2 levels” value in the data set on EGFR and HER2 was “decrease EGFR and HER2 levels”. Moreover, in data set [3], the Akt phosphorylation result was “decrease Akt phosphorylation”; the “DR4, DR5, and HER3 oligomerization” value is “increase DR4, DR5, and HER3 oligomerization”. Besides, the “effect on cell viability” value in the data set with breast cancer cell lines is “decrease the viability of three different breast cancer cell lines in a concentration-dependent manner”. Besides, the “binding site on AGR2 (competition experiments)” value at AGR2 was “bind to the same site on AGR2”.

Consider `CO[C@H]1C[C@@H]2CS(=O)(=O)SC[C@H]2C[C@@H]1OC` (racemic) [DMtcyDTDO, (4aS,6S,7S,8aS)- and (4aR,6R,7R,8aR)-6,7-Dimethoxyoctahydrobenzo [d][1,2]dithiine 2,2-dioxide], for which the “EGFR and HER2 levels” value with EGFR and HER2 was “decrease EGFR and HER2 levels”. In addition, in data set [1], the DR5 expression result is on record as “upregulate DR5”; the “ER-stress induced proteins GRP78 and AGR2” value was “increase the ER-stress induced proteins GRP78 and AGR2”; the “potency vs tcyDTDO in upregulating and oligomerizing DR4 and DR5 and increasing XBP1s, GRP78, and AGR2” value was “more potent than tcyDTDO”; the “disulfide bond-dependent oligomerization of DR4, DR5, and EGFR” value is “induce disulfide bond-dependent oligomerization of DR4, DR5, and EGFR”. Besides, in [3], the Akt phosphorylation result is recorded as “decrease Akt phosphorylation”; the “DR4, DR5, and HER3 oligomerization” value was “increase DR4, DR5, and HER3 oligomerization”. In the data set with MDA-MB-468 cells (FIG. 1B legend, test not stated there), the “potency relative to TcyDTDO” value is “twice as potent as TcyDTDO”. In the data set with MDA-MB-468 cells, the “potency of cytotoxicity relative to tcyDTDO” value came to 2 fold and the “effect on cell viability” value is “decrease the viability of the cancer cell lines in a concentration-dependent manner”.

On to `CNC(=O)Nc1ccc2c(c1)CC[C@@]21OC(=O)N(CC(=O)N(Cc2ccc(F)cc2)[C@@H](C)C(F)(F)F)C1=O` [A-485], for which, in data set [4], the “DR4, DR5, and EGFR oligomerization” value is reported as “without effect”.
